Where a name gives a salt, the structure may show the parent alone. Read-outs that look alike come from different tables or passages of the source.
How the values were obtained:
L1210 cells [1] = experiment: Metabolic transformation of polyamine analogues by L1210 cells; assay type: in vitro ADME, murine; details: 48 hours
Protocol: (§1) The cells were washed twice with cold RPMI-1640, and the pellet was treated with 0.6 N HClO4 (1 ml/10^7 cells). Polyamine contents of the perchloric acid extracts were quantitated by HPLC of the DANSYL derivatives [Bergeron et al, J. Med. Chem., Vol. 37, supra].

[2] = system: ornithine decarboxylase (ODC); experiment: ODC activity in treated L1210 cells; assay type: cell-based, murine; details: L1210, 1 μM at 4 hours
Protocol: (§2) On the basis of these studies, it was elected to evaluate the impact of the triamines on ODC and AdoMetDC at 4 and 6 hours, respectively.
(§3) ODC and AdoMetDC activities were determined as ^14CO2 released from [^14C]-carboxyl-labeled L-ornithine [Seely et al, “Ornithine Decarboxylase (Mouse Kidney),” Methods Enzymol., Vol. 94, pages 158-161 (1983)] or S-adenosyl-L-methionine [Pegg et al, “S-Adenosylmethionine Decarboxylase (Rat Liver),” Methods Enzymol., Vol. 94, pages 234-239 (1983)], respectively. Included in each assay were untreated L1210 cells as controls, as well as cells treated with DEHSPM, a drug having a known reproducible effect on each enzyme, as positive controls.

[3] = system: polyamine transport apparatus; experiment: Competitive uptake determination: inhibition of [3H]spermidine transport into L1210 cells; assay type: cell-based, murine; details: analogue inhibition of spermidine transport
Protocol: The ability of the norspermidines, spermidines, homospermidines, 4,5- and 5,5-triamines to compete with radiolabeled SPD for uptake was evaluated (Table 1). The general trend is that the terminally alkylated triamines have higher Ki values than the unalkylated triamines and are thus less easily taken up by the cell. […] This is not completely true with the norspermidines and the 5,5 triamines. The relationship holds with methyl and ethyl but not for the propyl of the latter two systems. Finally, the number of methylenes separating the amines plays a role in determining polyamine uptake properties. In general the effectiveness with which the analogues compete for uptake is spermidines≈homospermidines>4,5 triamines>5,5 triamines>norspermidine.
The polyamine derivatives were studied for their ability to compete with [^3H]-SPD for uptake into L1210 cells [Bergeron et al, J. Med. Chem., Vol. 37, supra]. Lineweaver-Burk plots indicated a simple competitive inhibition with respect to SPD.

[4] = system: spermidine/spermine acetyltransferase (SSAT); experiment: SSAT activity in treated L1210 cells; assay type: cell-based, murine; details: L1210, 10 μM at 48 hours (triamine analogues)
Text: Spermidine/spermine N^1-acetyltransferase activity was based on quantitation of [^14C]-N^1-acetylspermidine formed by acetylation of SPD with [^14C] acetyl coenzyme A according to the method of Libby et al [Biochem. Pharmacol., Vol. 38, supra]. Cells treated with DENSPM were positive controls.

[5] = system: S-adenosylmethionine decarboxylase (AdoMetDC); experiment: AdoMetDC activity in treated L1210 cells; assay type: cell-based, murine; details: L1210, 1 μM at 6 hours
Protocol: as §2, §3

L1210 cells [6] = experiment: Polyamine pool analysis in L1210 cells; assay type: cell-based, murine; details: for activity at 15 µM / activity at 75 µM / activity at 100 µM / activity at 500 µM: Mus musculus, L1210, 48 h, % of untreated control; for Analogue: intracellular amount
Protocol: The following guidelines were adopted for studying the impact of the analogues on polyamine pools (Table 2). The measurements were made after a 48-hour exposure to the analogue, and two different concentrations of analogue were evaluated in each case.
as §1

L1210 cells [7] = experiment: L1210 growth inhibition, IC50 determination; assay type: cell-based, murine
Protocol: Murine L1210 leukemia cells (ATCC CCL 219) were maintained in logarithmic growth in RPMI-1640 medium containing 10% fetal calf serum or a semi-synthetic equivalent, NuSerum, 2% HEPES-MOPS buffer and 1 mM aminoguanidine.

[8] = Mus musculus, L1210, 48 h, L1210, 48 hour exposure, read-out: IC50 48 hour
[9] = Mus musculus, L1210, 96 h, L1210, 96 hour exposure, read-out: IC50 96 hour

CNCCCCCNCCCCCNC [DM(5,5), 2,8,14-Triazapentadecane Trihydrochloride]
N-Monodealkylation (result in words) (L1210 cells [1]; 15 μM analogue): no N-demethylation | Parent drug as % of total drug in the cell (L1210 cells [1]; 15 μM analogue): 100% | Parent drug in L1210 cells (L1210 cells [1]; 15 μM analogue): 2560 pmols/10^6 | ODC activity, percent of untreated control [2]: 105% of untreated control | Ki [3]: 133 µM | SSAT activity, percent of untreated control [4]: 90% of untreated control | AdoMetDC activity, percent of untreated control [5]: 97% of untreated control | activity at 15 µM (L1210 cells [6]; 15 μM, read-out: Put): 0% | activity at 15 µM (L1210 cells [6]; 15 μM, read-out: Spd): 33% | activity at 15 µM (L1210 cells [6]; 15 μM, read-out: Spm): 115% | activity at 75 µM (L1210 cells [6]; 75 μM, read-out: Put): 0% | activity at 75 µM (L1210 cells [6]; 75 μM, read-out: Spd): 20% | activity at 75 µM (L1210 cells [6]; 75 μM, read-out: Spm): 101% | Analogue (L1210 cells [6]; 15 μM, 48 hours): 2.56 nmol/10^6 cells | Analogue (L1210 cells [6]; 75 μM, 48 hours): 3.61 nmol/10^6 cells | IC50 (L1210 cells [7]; [8]): 15 µM | IC50 (L1210 cells [7]; [9]): 0.4 µM

CCCNCCCCCNCCCCCNCCC [DP(5,5), 4,10,16-Triazanonadecane Trihydrochloride]
Parent drug as % of total drug in the cell (L1210 cells [1]; 500 μM analogue): 100% | Parent drug in L1210 cells (L1210 cells [1]; 500 μM analogue): 1300 pmols/10^6 | N-Monodealkylation (result in words) (L1210 cells [1]; 500 μM analogue, Trihydrochloride): no metabolic products were found | N-Monodealkylation (result in words) (L1210 cells [1]; 500 μM analogue, listed as DP-[6,5], Trihydrochloride): no N-depropylation | ODC activity, percent of untreated control [2]: 73% of untreated control | Ki [3]: 87 µM | SSAT activity, percent of untreated control [4]: 90% of untreated control | AdoMetDC activity, percent of untreated control [5]: 123% of untreated control | PUT reduced by (L1210 cells [6]; 500 μM, 48 hours): 50% | SPD reduced by (L1210 cells [6]; 500 μM, 48 hours): 30% | activity at 100 µM (L1210 cells [6]; 100 μM, read-out: Put): 59% | activity at 100 µM (L1210 cells [6]; 100 μM, read-out: Spd): 73% | activity at 100 µM (L1210 cells [6]; 100 μM, read-out: Spm): 97% | activity at 500 µM (L1210 cells [6]; 500 μM, read-out: Put): 51% | activity at 500 µM (L1210 cells [6]; 500 μM, read-out: Spd): 69% | activity at 500 µM (L1210 cells [6]; 500 μM, read-out: Spm): 103% | Analogue (L1210 cells [6]; 100 μM, 48 hours): 0.86 nmol/10^6 cells | Analogue (L1210 cells [6]; 500 μM, 48 hours): 1.33 nmol/10^6 cells | IC50 (L1210 cells [7]; [8]): > 100 µM | IC50 (L1210 cells [7]; [9]): 6 µM

CCCNCCCCCNCCCCNCCC [DP(4,5), 4,9,15-Triazaoctadecane Trihydrochloride]
Elaboration to tetraamine (result in words) (L1210 cells [1]; 100 μM analogue): no elaboration of N-Monoalkyl [5,4] | Parent drug as % of total drug in the cell (L1210 cells [1]; 100 μM analogue): 69.7% | Parent drug in L1210 cells (L1210 cells [1]; 100 μM analogue): 1325 pmols/10^6 | ODC activity, percent of untreated control [2]: 83% of untreated control | Ki [3]: 75 µM | SSAT activity, percent of untreated control [4]: 80% of untreated control | AdoMetDC activity, percent of untreated control [5]: 86% of untreated control | activity at 100 µM (L1210 cells [6]; 100 μM, read-out: Put): 0% | activity at 100 µM (L1210 cells [6]; 100 μM, read-out: Spd): 40% | activity at 100 µM (L1210 cells [6]; 100 μM, read-out: Spm): 119% | activity at 500 µM (L1210 cells [6]; 500 μM, read-out: Put): 0% | activity at 500 µM (L1210 cells [6]; 500 μM, read-out: Spd): 31% | activity at 500 µM (L1210 cells [6]; 500 μM, read-out: Spm): 121% | Analogue (L1210 cells [6]; 100 μM, 48 hours): 1.40 nmol/10^6 cells | Analogue (L1210 cells [6]; 500 μM, 48 hours): 2.42 nmol/10^6 cells | IC50 (L1210 cells [7]; L1210, 96 hour exposure, Trihydrochloride, read-out: IC50 96 hour): 1 to 1.4 µM | IC50 (L1210 cells [7]; [8]): ~100 µM | IC50 (L1210 cells [7]; [9]): < 2 µM

CNCCCCNCCCNC [DMSPD, N^1,N^8-Dimethylspermidine Trihydrochloride]
N-Monodealkylation (result in words) (L1210 cells [1]; 100 μM analogue): no N-demethylation | Parent drug as % of total drug in the cell (L1210 cells [1]; 100 μM analogue): 100% | Parent drug in L1210 cells (L1210 cells [1]; 100 μM analogue): 5000 pmols/10^6 | ODC activity, percent of untreated control ([2]; Trihydrochloride): 22% of untreated control | Ki [3]: 5.1 µM | SSAT activity, percent of untreated control [4]: 270% of untreated control | AdoMetDC activity, percent of untreated control [5]: 68% of untreated control | activity at 100 µM (L1210 cells [6]; 100 μM, read-out: Put): 0% | activity at 100 µM (L1210 cells [6]; 100 μM, read-out: Spd): 5% | activity at 100 µM (L1210 cells [6]; 100 μM, read-out: Spm): 58% | activity at 500 µM (L1210 cells [6]; 500 μM, read-out: Put): 0% | activity at 500 µM (L1210 cells [6]; 500 μM, read-out: Spd): 0% | activity at 500 µM (L1210 cells [6]; 500 μM, read-out: Spm): 54% | Analogue (L1210 cells [6]; 100 μM, 48 hours): 4.96 nmol/10^6 cells | Analogue (L1210 cells [6]; 500 μM, 48 hours): 4.89 nmol/10^6 cells | IC50 (L1210 cells [7]; [8]): > 100 µM | IC50 (L1210 cells [7]; [9]): 1.5 to 1.8 µM

Reference: patent publication US20020045780A1, “Biologically active spermidine analogues, pharmaceutical compositions and methods of treatment” (priority 1997, published 2002)
